Data on nine molecules can be found in patent US20030195205A1, “PDE9 inhibitors for treating cardiovascular disorders” (Pfizer Inc., priority 2001, published 2003).

The structures appear in SMILES notation. Like-named read-outs stand apart in the source and are kept apart here.

The assay addresses T1, purified recombinant human PDE9 (Homo sapiens, UniProt O76083).
T1 construct: FLAG; made in house; host or cells: baculovirus/Sf9
Description: PDE9 enzyme inhibition scintillation proximity assay ([3H]cGMP hydrolysis). Format: biochemical. The conditions noted are these: for inhibition at 1 µM: 1 μM compound, read-out: inhibition against PDE9 at a concentration of 1 μM. The protocol:
The ability of the compounds of the invention to inhibit the PDE9 enzyme was determined using the following in vitro assay. The assay used purified recombinant human PDE9.
The assay uses [3H]cGMP which is hydrolysed by the PDE9 enzyme to the 5′-nucleotide [3H]GMP. The [3H]GMP binds to yttrium silicate scintillation proximity assay (SPA) beads, and detected by scintillation counting. Inhibition of activity is determined relative to the activity of uninhibited controls.
Phosphodiesterase Scintillation Proximity Assay (SPA) beads (Yttrium Silicate) were obtained from Amersham Biotech.
[^3H]Guanosine 3′,5′-Cyclic Phosphate ([^3H]-cGMP), Ammonium Salt was obtained from Amersham Biotech.
Buffer A was prepared containing Tris.HCl (20 mM), MgCl2.6H2O (5 mM) in water.
Buffer B was prepared containing Bovine Serum Albumin (2 mg/ml) (BSA) in Buffer A. It was prepared fresh and filter sterilised.
PDE9 enzyme solution was prepared in Buffer B (dilution factor determined such that no more than 30% breakdown of substrate occurred, but typically 1:35,000).
SPA beads were prepared by creating a suspension of beads in water (20 mg/ml) (28 ml per pack) containing 3 mM cold cGMP to effectively quench the reaction.
The compounds of the invention were diluted by a factor of 50 (i.e. 2 μl in 100 μl) when constituted in the final assay mix. Compound stock was prepared at 4 mM in DMSO. Dilute 1/8 with DMSO to give 500 μM solutions.
A 4 mM stock of standard inhibitor was prepared in DMSO. The standard inhibitor chosen was 5-(3-bromobenzyl)-3-n-propyl-1,6-dihydro-7H-pyrazolo[4,3-d]pyrimidin-7-one. The solution was further diluted with DMSO to give a 500 μM solution.
Following serial dilution, 2 μl of compound dilutions were dispensed in duplicate into microtitre plates with 2 μl DMSO added to controls as shown below.
To the microtitre plates containing solutions of compounds of the invention (2 μl) was added Buffer A (25 μl) to all wells. Buffer B (25 μl) was added to blank wells. Enzyme solution (25 μl) was added all wells except blanks. Substrate solution (50 μl) was added to each well. The plates were sealed and incubated for 15 minutes on a plate-shaker at 30 °C. SPA bead solution (50 μl) was added (containing excess cGMP) to each well to stop the reaction (Note: yttrium silicate beads are dense and require constant agitation whilst being added to each plate). The plates were shaken for 15 minutes to allow the beads to bind the GMP product and then allowed to settle for 30 minutes.
The plates were then analysed using a scintillation counter (such as the NXT TopCount)TM.
For each compound the percentage inhibition was calculated by the following equation:
(mean maximum−compound value)/(mean maximum−mean minimum)×100
IC50 values were determined from sigmoid dose response curves of enzyme activity vs. compound concentration.
A general note: SPA uses beads or plates that emit light when radiolabelled molecules are held near them.

T1 sequence (O76083 whole entry): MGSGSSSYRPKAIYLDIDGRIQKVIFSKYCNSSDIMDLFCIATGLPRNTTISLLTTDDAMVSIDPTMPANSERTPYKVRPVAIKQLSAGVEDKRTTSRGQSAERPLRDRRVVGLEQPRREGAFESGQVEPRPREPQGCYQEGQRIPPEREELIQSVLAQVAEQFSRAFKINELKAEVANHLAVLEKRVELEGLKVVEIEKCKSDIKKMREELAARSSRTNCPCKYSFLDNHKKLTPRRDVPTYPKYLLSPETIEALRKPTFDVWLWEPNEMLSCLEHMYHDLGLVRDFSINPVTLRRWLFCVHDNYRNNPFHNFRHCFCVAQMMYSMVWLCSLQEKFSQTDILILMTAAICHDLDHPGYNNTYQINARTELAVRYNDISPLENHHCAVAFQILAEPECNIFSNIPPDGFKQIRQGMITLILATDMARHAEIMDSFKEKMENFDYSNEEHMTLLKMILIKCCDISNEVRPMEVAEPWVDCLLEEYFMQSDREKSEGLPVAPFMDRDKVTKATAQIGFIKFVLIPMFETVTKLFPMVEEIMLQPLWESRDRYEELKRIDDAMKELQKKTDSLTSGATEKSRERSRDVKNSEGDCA

In the case of `CC(C)c1n[nH]c2c(=O)[nH]c(Cc3ccccc3Oc3ccccc3)nc12` [Compound 52, 3-isopropyl-5-(2-phenoxybenzyl)-1,6-dihydro-pyrazolo[4,3-d]pyrimidin-7-one], the inhibition at 1 µM was more than 40%. Further, the IC50 (read-out: IC50 against PDE9) was 126 nM.
For `O=c1[nH]c(Cc2ccccc2OC(F)(F)F)nc2c(-c3cccnc3)n[nH]c12` [Compound 258], the IC50 (read-out: IC50 against PDE9) is 141 nM.
As for `O=c1[nH]c(Cc2ccccc2OCc2ccccc2)nc2c(C3CCCC3)n[nH]c12` [Compound 204, 3-cyclopentyl-5-(2-benzyloxybenzyl)-1,6-dihydro-pyrazolo[4,3-d]pyrimidin-7-one], the inhibition at 1 µM was more than 40%. Moreover, the half-maximal inhibitory concentration (IC50) (read-out: IC50 against PDE9) was found to be 143 nM.
Consider `CCCc1n[nH]c2c(=O)[nH]c(Cc3cccc(Br)c3)nc12` [standard, 5-(3-bromobenzyl)-3-n-propyl-1,6-dihydro-7H-pyrazolo[4,3-d]pyrimidin-7-one, reference compound], for which the half-maximal inhibitory concentration (IC50) (range the standard inhibitor was expected to fall in, read-out: IC50 of the standard) lay in the range of 30 to 50 nM.
Consider `CC(C)c1c2nc(Cc3cccc(Cl)c3)[nH]c(=O)c2nn1C` [Compound 262, 5-(3-Chlorobenzyl)-3-isopropyl-2-methyl-2,6-dihydro-7H-pyrazolo[4,3-d]pyrimidin-7-one], for which the inhibition at 1 µM is more than 40%.
Still for that read-out and setting: to `CC(C)c1n[nH]c2c(=O)[nH]c(Cc3ccccc3OC(F)(F)F)nc12` [Compound 156, 3-isopropyl-5-(2-trifluoromethoxybenzyl)-1,6-dihydro-pyrazolo[4,3-d]pyrimidin-7-one] belongs more than 40%; to `O=c1[nH]c(Cc2ccccc2OCc2ccccc2)nc2c(-c3cccnc3)n[nH]c12` [Compound 138, 3-(3-pyridinyl)-5-(2-benzyloxybenzyl)-1,6-dihydro-pyrazolo[4,3-d]pyrimidin-7-one], more than 40%.
On the same count and under the same terms, for `O=c1[nH]c(Cc2ccccc2OC(F)(F)F)nc2c(-c3ccccc3)n[nH]c12` [Compound 263, 5-(2-Trifluoromethoxybenzyl)-3-phenyl-1,6-dihydro-7H-pyrazolo[4,3-d]pyrimidin-7-one] the value was more than 40%; for `O=c1[nH]c(Cc2ccccc2OC(F)(F)F)nc2c(C3CCCC3)n[nH]c12` [Compound 256, 3-Cyclopentyl-5-(2-trifluoromethoxybenzyl)-1,6-dihydro-pyrazolo[4,3-d]pyrimidin-7one], more than 40%.

In general, IC50 refers to the midpoint of a concentration-inhibition curve.
